The record followed here is ChEMBL document CHEMBL5291721, “A preclinical secondary pharmacology resource illuminates target-adverse drug reaction associations of marketed drugs” (Nat Commun, 2023).

SMILES strings stand for the structures.

Assay [1] addresses Glucagon receptor (Homo sapiens, UniProt P47871).
The target of assay [2] is 5-hydroxytryptamine receptor 6 (Homo sapiens, UniProt P50406).
In assay [3] the target is T1, Gastric inhibitory polypeptide receptor (Homo sapiens, UniProt P48546).
T1 sequence (P48546 whole entry): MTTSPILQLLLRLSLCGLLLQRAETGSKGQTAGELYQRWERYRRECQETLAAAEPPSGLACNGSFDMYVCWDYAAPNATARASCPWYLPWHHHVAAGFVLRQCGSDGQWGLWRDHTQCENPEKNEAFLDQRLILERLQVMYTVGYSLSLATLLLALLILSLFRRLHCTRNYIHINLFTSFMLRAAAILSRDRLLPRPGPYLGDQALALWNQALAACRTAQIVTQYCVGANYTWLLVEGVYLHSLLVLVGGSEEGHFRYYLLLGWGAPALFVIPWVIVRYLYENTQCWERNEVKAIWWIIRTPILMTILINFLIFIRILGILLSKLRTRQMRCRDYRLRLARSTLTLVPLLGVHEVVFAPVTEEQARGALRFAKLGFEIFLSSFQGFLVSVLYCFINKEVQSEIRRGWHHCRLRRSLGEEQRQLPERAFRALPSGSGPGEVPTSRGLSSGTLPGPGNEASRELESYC

Assay [4] deals with T2, Endothelin receptor type B (Homo sapiens, UniProt P24530).
T2 sequence (P24530 whole entry): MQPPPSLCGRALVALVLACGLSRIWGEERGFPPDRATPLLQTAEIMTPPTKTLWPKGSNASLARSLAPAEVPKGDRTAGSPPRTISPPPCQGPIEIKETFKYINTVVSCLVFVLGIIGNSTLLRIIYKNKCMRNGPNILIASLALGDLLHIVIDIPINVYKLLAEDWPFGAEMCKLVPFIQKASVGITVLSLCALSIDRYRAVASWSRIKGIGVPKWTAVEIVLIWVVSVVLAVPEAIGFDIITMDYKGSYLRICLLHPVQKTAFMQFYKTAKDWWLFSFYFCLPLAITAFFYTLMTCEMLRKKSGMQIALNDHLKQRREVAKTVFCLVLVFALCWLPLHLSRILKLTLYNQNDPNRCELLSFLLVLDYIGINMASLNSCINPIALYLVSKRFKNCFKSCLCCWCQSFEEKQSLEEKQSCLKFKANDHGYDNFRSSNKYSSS

Assay [5] has as its target T3, D(4) dopamine receptor (Homo sapiens, UniProt P21917).
T3 sequence (P21917 whole entry): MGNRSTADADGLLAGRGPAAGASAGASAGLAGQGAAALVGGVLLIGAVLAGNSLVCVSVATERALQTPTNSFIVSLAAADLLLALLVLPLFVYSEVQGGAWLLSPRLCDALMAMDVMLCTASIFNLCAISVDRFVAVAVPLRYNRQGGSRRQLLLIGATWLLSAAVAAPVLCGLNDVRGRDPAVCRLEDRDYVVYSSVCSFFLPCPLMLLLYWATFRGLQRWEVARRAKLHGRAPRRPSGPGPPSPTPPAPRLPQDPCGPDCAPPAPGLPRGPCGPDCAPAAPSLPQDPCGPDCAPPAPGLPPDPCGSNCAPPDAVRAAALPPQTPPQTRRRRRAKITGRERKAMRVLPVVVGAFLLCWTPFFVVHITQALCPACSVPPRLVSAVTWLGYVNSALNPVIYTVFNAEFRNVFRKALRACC

Assay [6] concerns the target 5-hydroxytryptamine receptor 7 (Homo sapiens, UniProt P34969).
The target of assay [7] is T4, Corticotropin-releasing factor receptor 2 (Homo sapiens, UniProt Q13324).
T4 sequence (Q13324 whole entry): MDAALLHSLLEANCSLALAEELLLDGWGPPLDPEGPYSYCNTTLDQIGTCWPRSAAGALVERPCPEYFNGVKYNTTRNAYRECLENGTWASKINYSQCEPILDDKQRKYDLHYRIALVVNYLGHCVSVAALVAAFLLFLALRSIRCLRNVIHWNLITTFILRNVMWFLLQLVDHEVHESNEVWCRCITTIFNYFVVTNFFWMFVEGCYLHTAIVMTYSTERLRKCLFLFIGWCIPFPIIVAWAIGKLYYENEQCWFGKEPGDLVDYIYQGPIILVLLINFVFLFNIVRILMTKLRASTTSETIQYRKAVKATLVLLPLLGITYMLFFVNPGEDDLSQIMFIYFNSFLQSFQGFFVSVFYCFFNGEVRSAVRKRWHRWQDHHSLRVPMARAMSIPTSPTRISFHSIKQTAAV

In assay [8] the target is T5, B1 bradykinin receptor (Homo sapiens, UniProt P46663).
T5 sequence (P46663 whole entry): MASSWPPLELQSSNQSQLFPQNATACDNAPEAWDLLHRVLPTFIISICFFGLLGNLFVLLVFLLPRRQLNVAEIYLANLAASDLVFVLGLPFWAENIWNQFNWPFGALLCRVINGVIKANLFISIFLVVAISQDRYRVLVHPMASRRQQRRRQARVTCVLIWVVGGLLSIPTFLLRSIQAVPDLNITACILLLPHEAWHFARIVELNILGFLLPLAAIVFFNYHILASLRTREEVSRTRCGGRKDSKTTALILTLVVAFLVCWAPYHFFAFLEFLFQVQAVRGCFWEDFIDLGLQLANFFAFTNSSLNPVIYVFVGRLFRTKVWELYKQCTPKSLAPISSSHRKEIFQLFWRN

Assay [9] deals with Cannabinoid receptor 1 (Homo sapiens, UniProt P21554). Type of assay: functional.
Cannabinoid receptor 1, sequence (P21554 whole entry): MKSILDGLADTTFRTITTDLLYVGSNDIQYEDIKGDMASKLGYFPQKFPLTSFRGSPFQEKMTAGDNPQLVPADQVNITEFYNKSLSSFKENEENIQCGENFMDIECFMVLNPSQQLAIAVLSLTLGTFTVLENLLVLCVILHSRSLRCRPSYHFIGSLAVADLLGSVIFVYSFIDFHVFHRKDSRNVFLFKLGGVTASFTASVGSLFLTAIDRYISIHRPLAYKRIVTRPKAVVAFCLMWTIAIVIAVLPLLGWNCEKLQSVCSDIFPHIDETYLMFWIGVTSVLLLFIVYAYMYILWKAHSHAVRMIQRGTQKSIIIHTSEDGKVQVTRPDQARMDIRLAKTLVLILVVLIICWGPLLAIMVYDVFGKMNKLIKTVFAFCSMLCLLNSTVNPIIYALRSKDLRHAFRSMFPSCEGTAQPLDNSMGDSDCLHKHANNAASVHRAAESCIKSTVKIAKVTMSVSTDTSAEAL
Assay [10] addresses T6, Corticotropin-releasing factor receptor 1 (Homo sapiens, UniProt P34998).
T6 sequence (P34998 whole entry): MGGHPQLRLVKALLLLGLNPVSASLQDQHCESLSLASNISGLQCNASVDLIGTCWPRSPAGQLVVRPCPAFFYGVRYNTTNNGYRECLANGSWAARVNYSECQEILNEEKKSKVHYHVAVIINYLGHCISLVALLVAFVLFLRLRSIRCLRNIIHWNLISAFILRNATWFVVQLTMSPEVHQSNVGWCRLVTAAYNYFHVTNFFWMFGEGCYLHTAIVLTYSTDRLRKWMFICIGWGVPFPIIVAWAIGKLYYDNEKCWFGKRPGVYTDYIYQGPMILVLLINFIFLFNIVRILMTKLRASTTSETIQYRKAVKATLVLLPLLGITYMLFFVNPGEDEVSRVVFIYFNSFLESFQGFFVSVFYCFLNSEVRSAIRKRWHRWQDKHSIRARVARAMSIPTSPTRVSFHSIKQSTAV
Note: assay procedure not described here.

5-hydroxytryptamine receptor 7, sequence (P34969 whole entry): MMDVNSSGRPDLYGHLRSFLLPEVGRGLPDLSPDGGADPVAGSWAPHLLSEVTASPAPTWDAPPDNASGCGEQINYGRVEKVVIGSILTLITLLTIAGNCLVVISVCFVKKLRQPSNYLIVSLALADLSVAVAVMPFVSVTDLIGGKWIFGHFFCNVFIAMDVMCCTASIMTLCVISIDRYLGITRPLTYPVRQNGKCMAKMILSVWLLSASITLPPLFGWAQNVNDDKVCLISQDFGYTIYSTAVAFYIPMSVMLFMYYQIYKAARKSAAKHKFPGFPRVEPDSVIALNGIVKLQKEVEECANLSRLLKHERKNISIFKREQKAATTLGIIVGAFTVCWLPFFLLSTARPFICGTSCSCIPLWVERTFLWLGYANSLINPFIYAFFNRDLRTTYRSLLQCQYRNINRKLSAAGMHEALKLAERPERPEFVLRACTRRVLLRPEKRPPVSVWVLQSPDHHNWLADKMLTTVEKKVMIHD
Glucagon receptor, sequence (P47871 whole entry): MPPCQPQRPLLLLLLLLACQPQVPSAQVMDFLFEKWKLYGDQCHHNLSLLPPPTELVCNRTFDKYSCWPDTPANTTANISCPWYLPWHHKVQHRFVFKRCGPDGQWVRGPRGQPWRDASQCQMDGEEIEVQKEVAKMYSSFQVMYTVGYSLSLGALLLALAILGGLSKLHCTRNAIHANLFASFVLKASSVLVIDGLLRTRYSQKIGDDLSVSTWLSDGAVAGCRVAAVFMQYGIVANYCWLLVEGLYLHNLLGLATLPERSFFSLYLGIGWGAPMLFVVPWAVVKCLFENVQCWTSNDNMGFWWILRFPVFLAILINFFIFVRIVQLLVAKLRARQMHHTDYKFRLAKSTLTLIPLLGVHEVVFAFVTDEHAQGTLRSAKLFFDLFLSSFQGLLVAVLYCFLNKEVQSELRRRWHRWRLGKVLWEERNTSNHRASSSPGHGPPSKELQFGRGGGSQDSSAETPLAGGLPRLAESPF
5-hydroxytryptamine receptor 6, sequence (P50406 whole entry): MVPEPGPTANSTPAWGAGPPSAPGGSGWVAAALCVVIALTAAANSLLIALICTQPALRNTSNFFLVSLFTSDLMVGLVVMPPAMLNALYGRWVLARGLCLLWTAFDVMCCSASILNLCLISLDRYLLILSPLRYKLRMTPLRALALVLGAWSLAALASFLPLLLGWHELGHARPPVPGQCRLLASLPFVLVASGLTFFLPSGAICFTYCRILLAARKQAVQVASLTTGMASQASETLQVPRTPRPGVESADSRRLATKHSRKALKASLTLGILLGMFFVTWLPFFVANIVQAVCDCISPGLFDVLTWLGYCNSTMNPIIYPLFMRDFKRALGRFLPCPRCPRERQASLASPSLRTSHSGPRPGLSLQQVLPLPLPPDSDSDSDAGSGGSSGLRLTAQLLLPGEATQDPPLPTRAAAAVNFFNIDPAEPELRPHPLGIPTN

As to `NCCCC(O)(P(=O)(O)O)P(=O)(O)O` [ALENDRONIC ACID], the AC50 – broadly, the concentration at which the activity in the assay is half-maximal – was above 30 µM in assay [1]; above 10 µM in assay [2]; above 30 µM in assay [3]; above 30 µM in assay [4]; above 10 µM in [5]; above 10 µM in assay [6]. Moreover, the AC50 is above 30 µM in assay [7], above 30 µM in [8], above 10 µM in assay [9] and above 30 µM in assay [10].

Regarding `CCCC(C)(COC(N)=O)COC(=O)NC(C)C` (configuration not stated) [CARISOPRODOL], the AC50 is above 30 µM in [1]; above 30 µM in assay [3]; above 30 µM in assay [4]; above 10 µM in [5]; above 30 µM in assay [7]; above 30 µM in assay [8]. This molecule also returned an AC50 in assay [10] above 30 µM.

Turning to `N[C@H](Cc1cc(I)c(Oc2cc(I)c(O)c(I)c2)c(I)c1)C(=O)O` [DEXTROTHYROXINE], the AC50 in assay [1], in assay [3], in assay [4], in assay [7], in assay [8] and in assay [10] was above 30 µM each time.

Consider `CC(=O)OCC(CCn1cnc2cnc(N)nc21)COC(C)=O` [FAMCICLOVIR], for which the AC50 is above 30 µM in [1]; above 30 µM in [3]; above 30 µM in assay [4]; above 10 µM in assay [5]; above 30 µM in [7]; above 30 µM in assay [8]. Moreover, in [10], the AC50 was above 30 µM.

`O=C(O)c1ccccc1Nc1cccc(C(F)(F)F)c1` [FLUFENAMIC ACID]: the AC50 in [1], in [3], in [4], in assay [7], in assay [8] and in assay [10] was above 30 µM each time.

With `COC1=C(OC)C(=O)C(CCCCCCCCCCO)=C(C)C1=O` [IDEBENONE], the AC50 in assay [1] is above 30 µM; in assay [2] it was above 10 µM; in [3], above 30 µM; in [4], above 30 µM; in assay [5], above 10 µM; in assay [6] it was above 10 µM. The AC50 in assay [7] was above 30 µM; in assay [8], above 30 µM; in [9], above 10 µM; in assay [10], above 30 µM.

Turning to `O=C1CN=C(c2ccccc2)c2cc(Cl)ccc2N1` [NORDAZEPAM], the AC50 in [1] was above 30 µM; in assay [2] it was above 10 µM; in assay [3] it was above 30 µM; in assay [4], above 30 µM; in assay [5] it was above 10 µM; in assay [6], above 10 µM. The AC50 in assay [7] was above 30 µM; in [8], above 30 µM; in assay [9], 0.0006 µM; in assay [10], above 30 µM.

As for `CC(CCc1ccccc1)NC(C)C(O)c1ccc(O)cc1` (configuration not stated) [NYLIDRIN], the AC50 is above 30 µM in [1]; above 10 µM in assay [2]; above 30 µM in assay [3]; above 30 µM in assay [4]; above 10 µM in assay [5]; above 10 µM in assay [6]. In addition, the AC50 in [7] is above 30 µM; in [8], above 30 µM; in [9], above 10 µM; in assay [10], above 30 µM.

As to `O=C1Nc2ccc(Cl)cc2C(c2ccccc2)=NC1O` (configuration not stated) [OXAZEPAM], the AC50 in assay [1] is above 30 µM; in assay [2], above 10 µM; in [3], above 30 µM; in assay [4], above 30 µM; in [5], above 10 µM; in [6], above 10 µM. Also, the half-maximal activity concentration (AC50) is above 30 µM in [7], above 30 µM in assay [8], above 10 µM in assay [9] and above 30 µM in assay [10].

Take `CC(C)CC(N(C)C)C1(c2ccc(Cl)cc2)CCC1` (configuration not stated) [SIBUTRAMINE]: the AC50 in [1] was above 30 µM; in [3], above 30 µM; in assay [4], above 30 µM; in assay [5] it was above 10 µM; in assay [7], above 30 µM; in [8], above 30 µM. For the same molecule, the AC50 in assay [10] is above 30 µM.

For the molecule `[H]/N=C(/N)N[C@H]1[C@H](O)[C@@H](O)[C@H](O[C@@H]2O[C@@H](C)[C@](O)(C=O)[C@H]2O[C@@H]2O[C@@H](CO)[C@H](O)[C@@H](O)[C@@H]2NC)[C@@H](N/C(N)=N\[H])[C@@H]1O` [STREPTOMYCIN], the AC50 in assay [1] is above 30 µM; in assay [2], above 10 µM; in assay [3], above 30 µM; in assay [4], above 30 µM; in assay [5], above 10 µM; in [6], above 10 µM. Also, the AC50 in assay [7] was above 30 µM; in assay [8], above 30 µM; in [9], above 10 µM; in [10] it was above 30 µM.

As for `N#C[C@@H]1CCCN1C(=O)CNC12CC3CC(CC(O)(C3)C1)C2` [VILDAGLIPTIN], the AC50 in [2], in [5], in assay [6] and in assay [9] was above 10 µM throughout.
